Experimental data published in BindingDB's records for doi:10.1021/jm000484+ (Abbott Laboratories, 2001).

What was measured:
[1] = In vitro immunosuppression in stimulated T cells expressing Voltage-gated potassium channel subunit Kv1.3
[2] = In vitro immunosuppression in stimulated T cells expressing Voltage-gated potassium channel subunit Kv1.3; Range is 1-10

Row | EC50 [1] [nM] | IC50 [2] [nM] | Compound
1 | 1000 | – | CCC/N=c1\ccn(Cc2ccccc2)c2cc(Cl)ccc12
2 | – | 1000 | CCNC(=O)c1cc(/C=C/CCc2ccccc2)ccc1-c1ccc(Cl)cc1 [4'-Chloro-4-((E)-4-phenyl-but-1-enyl)-biphenyl-2-carboxylic acid ethylamide]
